4 compounds from patent US11717561B2, “Multimodal antimicrobial therapy” (Longhorn Vaccines and Diagnostics, LLC, priority 2013, dated 2023) can be followed below.

Where two headings read alike, the source gives them in different places.

One experiment deals with ethanol-killed MTB. It counts as cell-based, M. tuberculosis. The note with it: 375 μg/ml.
The test system of experiment [1] is Mycobacterium smegmatis (MS). Description: Effect of antibiotics and lysostaphin on growth/lysis of live M. smegmatis, % T at 650 nm. It counts as cell-based.
Setting [2] is: Imp 1 mg/ml, Lysostaphin 0 units/ml.
Setting [3] is: Rif 1 mg/ml, Lysostaphin 0 units/ml.

Consider “Recombinant Lysostaphin: recombinant simulans lysostaphin produced in E. coli (Sigma-Aldrich)”, for which, in the experiment on ethanol-killed MTB (bacterial dilution 1:2), the “% T at 3 min” value is on record as 86.268%, the “% T at 10 min” value is recorded as 91.59% and the “% T at 20 min” value came to 92.587%. For the same compound, in the experiment on ethanol-killed MTB (bacterial dilution 1:4), the “% T at 3 min” value is given as 95.356%, the “% T at 10 min” value is 77.33% and the “% T at 20 min” value worked out at 92.651%. In the experiment with ethanol-killed MTB (bacterial dilution 1:8), the “% T at 3 min” value is 97.308%, the “% T at 10 min” value is given as 98.03% and the “% T at 20 min” value is given as 98.186%.

Regarding `C[C@@H](O)[C@H]1C(=O)N2C(C(=O)O)=C(SCCNC=N)C[C@H]12.O` [Imp, Imipenem monohydrate], the “% Transmission (% T) change from baseline (negative equals growth, positive equals lysis/killing)” value in experiment [1] (Imipenem 1.0 mg/ml without lysostaphin) is given as “+12.54 % T”. Moreover, in experiment [1] (setting [2]), the “% T 5 min” value is reported as 78.00%, the “% T 3 hours” value was determined as 82.67% and the “% T 20 hours” value came to 90.54%.

Turning to `CO[C@H]1/C=C/O[C@@]2(C)Oc3c(C)c(O)c4c(O)c(c(/C=N/N5CCN(C)CC5)c(O)c4c3C2=O)NC(=O)/C(C)=C\C=C\[C@H](C)[C@H](O)[C@@H](C)[C@@H](O)[C@@H](C)[C@H](OC(C)=O)[C@@H]1C` [Rif, Rifampicin], in experiment [1] (setting [3]), the “% T 5 min” value turned out to be 79.25%, the “% T 3 hours” value was 75.27% and the “% T 20 hours” value is 71.79%.

Take “Lysostaphin: natural lysostaphin from S. staphylolyticus (Sigma Cat L7386), a 27 kD glycylglycine endopeptidase”: in experiment [1] (Lysostaphin alone 200 units/ml), the “% T 5 min” value was found to be 77.34%, the “% T 3 hours” value is recorded as 71.54% and the “% T 20 hours” value was 45.47%.
